Reference: US4613614A, “Prostaglandin I2 ester and fat emulsion containing the same” (The Green Cross Corporation, priority 1983, dated 1986)
In brackets after ≈: the same amount, converted by molar mass. Structures can show the parent of a compound that is named as a salt.

What was measured:
[1] = system: platelet agglutination (PRP, plasma rich in platelet); assay: Change of agglutination-inhibition rate with incubation time, fat emulsions (evaluated indirectly via c-AMP content in the platelets); type: cell-based, Wistar-strain male rats; set-up: concentration or dose not given beside the values; details: compounds in fat emulsion, sodium salt of prostaglandin I2 in aq. solution; for agglutination-inhibition rate, incubation time 5 minutes: incubation 5 minutes; for agglutination-inhibition rate, incubation time 20 minutes: incubation 20 minutes; for agglutination-inhibition rate, incubation time 60 minutes: incubation 60 minutes
Description: (§1) Wistar-strain male rats weighing 150 to 200 g were used in the experiment.
(§2) Blood samples were collected from the heart of the animal without anasthesia by the use of a syringe, in which 3.3% sodium citrate solution had been placed beforehand, in such a way that the volume ratio of the sodium citrate solution to the collected blood was 1:9. The collected blood was then quickly centrifuged at 170 G at room temperature to obtain plasma rich in platelet (hereinafter referred to as PRP).
Separately, by using fat emulsions prepared as in Example 3 and extending the incubation time to 5, 20 and 60 minutes, the changes in agglutination-inhibition rate were observed. Each fat emulsion was prepared to contain 1 mg in terms of prostaglandin I2 of a test compound. It was incubated with PRP for a predetermined time; the platelets were then washed; and the content of c-AMP in the platelets was determined, thus to evaluate indirectly the inhibitory action on platelet agglutination. A physiological saline solution of sodium salt of prostaglandin I2 was used as the control.

[2] = system: platelet agglutination (PRP, plasma rich in platelet); assay: Platelet-agglutination inhibition test (rat PRP, adenosine phosphate, aggregometer); type: cell-based, Wistar-strain male rats; details: 1 min, concentration in terms of prostaglandin I2 reducing maximum agglutination rate by 50% relative to control, 1 min at 37° C., 1 mM adenosine phosphate, read-out: ED50 (the source's name)
Description: as §1, §2
Then, the compounds 1, 2 and 3 as well as sodium salt of prostaglandin I2 were respectively dissolved in ethanol to a concentration of 1 mg/ml in terms of prostaglandin I2, and thereafter diluted with physiological saline to form solutions of various concentrations.
The platelet-agglutination inhibition test was carried out in the following manner.
The above-mentioned PRP (500 μl) and the above solution 50 μl) containing the drug tested were incubated at 37° C. for one minute in an aggregometer cuvette; then 1 mM adenosine phosphate solution (50 μl) was added to the mixture to obtain an agglutination curve on the instrument and determine the maximum agglutination rate. A mixture of 500 μl of PRP, 50 μl of physiological saline and 50 μl of 1 mM adenosine phosphate solution was used as the control to obtain similarly an agglutination curve.
The concentration (ED50) in terms of prostaglandin I2 of each of the drugs to be tested, at which the solution containing the drug reduces the percentage of the maximum agglutination rate by 50% relative to that of the control taken as 100, was calculated.

[3] = system: platelet agglutination (PRP, plasma rich in platelet); assay: Change of agglutination-inhibition rate with incubation time, fat emulsions (evaluated indirectly via c-AMP content in the platelets); type: cell-based, Wistar-strain male rats; set-up: concentration or dose not given beside the values; details: incubation 1 minute; compounds in fat emulsion, sodium salt of prostaglandin I2 in aq. solution
artery = details: cited from earlier work
[4] = system: human platelet agglutination; details: cited from earlier work
other smooth muscles = details: cited from earlier work
[5] = cited from earlier work
platelet agglutination = details: cited from earlier work

Compound	agglutination-inhibition rate, incubation time 5 minutes [1]	agglutination-inhibition rate, incubation time 20 minutes [1]	agglutination-inhibition rate, incubation time 60 minutes [1]	IC50 [2]	agglutination-inhibition rate, incubation time 1 minute [3]	artery-relaxative or artery-contractive action (artery)	suppression of human platelet agglutination action induced by arachidonic acid [4]	relaxation of other smooth muscles (other smooth muscles)	water solubility [5]	platelet-agglutination action (platelet agglutination)
CCCCCC(O)C=CC1C(O)CC2OC(=CCCCC(=O)OCC(=O)OCCCC)CC21 (centres unmarked) [Compound 1, butoxycarbonylmethyl prostaglandin I2 ester]	11%	7%	3%	4.6 µg/mL (≈ 9.86 µM)	13%					
CCCCCC(O)C=CC1C(O)CC2OC(=CCCCC(=O)OCOC(=O)C(C)(C)C)CC21 (centres unmarked) [Compound 2, Pivaloyloxymethyl prostaglandin I2 ester]	78%	51%	27%	0.5 µg/mL (≈ 1.07 µM)	93%					
CCCCCC(=O)OC(C)OC(=O)CCCC=C1CC2C(CC(O)C2C=CC(O)CCCCC)O1 (centres unmarked) [Compound 3, 1-Hexanoyloxyethyl prostaglandin I2 ester]	71%	65%	48%	0.7 µg/mL (≈ 1.42 µM)	78%					
CCCCC[C@H](O)/C=C/[C@@H]1[C@H]2C/C(=C/CCCC(=O)O)O[C@H]2C[C@H]1O [Sodium salt of prostaglandin I2, reference compound]	17%	0%	0%	0.4 µg/mL	100%					
CCCCC[C@H](O)/C=C/[C@@H]1[C@H]2C/C(=C/CCCC(=O)O)O[C@H]2C[C@H]1O [prostaglandin I2, (5Z,13E)-(9α, 11α, 15S)-6,9-epoxy-11,15-dihydroxyprosta-5,13-dienoic acid]						powerful artery-relaxative action	strongly suppresses	does not relax other smooth muscles	fairly water-soluble	
CCCCCC(O)C=CC1OC2CC(O2)C1CC=CCCCC(=O)O (centres unmarked) [thromboxan A2]						artery-contractive action				platelet-agglutination action
